Measurements taken from patent US10023562B2, “Heteroaryl substituted pyridyl compounds useful as kinase modulators” (BRISTOL-MYERS SQUIBB COMPANY, priority 2012, dated 2018).

System: TLR2 induced IL-6 in peripheral blood mononuclear cells (PBMCs)
Assay: PBMC TLR2 Induced IL-6 Assay
Format: cell-based
Details: Homo sapiens, PBMC, 5 h, 10 μg/ml lipoteichoic acid for 5 hours, IL-6 by ELISA; for EC50: values marked * are EC50, read-out: Cell EC50 (values marked *); for IC50: values without asterisk, read-out: Cell IC50
Protocol: PBMC TLR2 Induced IL-6 Assay Peripheral blood mononuclear cells (PBMCs) were isolated from human blood containing the anti-coagulant EDTA (2.5 mM) by centrifugation over a FICOLL® gradient. […] At the end of the culture, plates were centrifuged at 1800 rpm for 10 minutes to pellet the cells. Supernatants were harvested and analyzed for IL-6 levels by ELISA (BD Biosciences, San Jose, Calif.).

| Structure (SMILES) | EC50 [nM] | IC50 [nM] |
| --- | --- | --- |
| Cc1cnc(Nc2cc(NC(C)C)c(C(=O)NC[C@@H](F)C(C)(C)O)cn2)nc1 [Example 113] | 558 |  |
| CS[C@H]1CC[C@H](NC(=O)c2cnc(Nc3ncc(C#N)cc3F)cc2NC(C)C)CC1 [Example 32, 6-((5-cyano-3-fluoropyridin-2-yl)amino)-4-(isopropylamino)-N-((1R,4R)-4-(methylthio)cyclohexyl)nicotinamide] | 199 |  |
| CS(=O)(=O)[C@H]1CC[C@H](NC(=O)c2cnc(Nc3ncc(C#N)cc3Cl)cc2NC2CC2)CC1 [Example 151] | 187 |  |
| CC(C)(O)[C@H](F)CNC(=O)c1cnc(Nc2ncc(C#N)cc2F)cc1NC1CCOCC1 [Example 49] |  | 164 |
| CC(C)(O)[C@H](F)CNC(=O)c1cnc(Nc2ncncc2F)cc1NC1CC1 [Example 94] | 391 |  |
| CC(C)(O)[C@H](F)CNC(=O)c1cnc(Nc2ncc(C#N)cc2Cl)cc1NC1CCCC1O (stereo partly shown) [Example 76] | 107 |  |
| CC(C)(O)[C@H](F)CNC(=O)c1cnc(Nc2ncc(C#N)cc2Cl)cc1N[C@H]1CC[C@](C)(O)CC1 [Example 150] | 62 |  |
| CC(C)Nc1cc(Nc2ccc(C#N)cn2)ncc1C(=O)N[C@H]1CC[C@H](C(=O)NC2CC2)CC1 [Example 6, 6-((5-cyanopyridin-2-yl)amino)-N-((1R,4R)-4-(cyclopropylcarbamoyl)cyclohexyl)-4-(isopropylamino)nicotinamide] |  | 648 |
| [2H]C([2H])([2H])OC(C)(C)[C@H](F)CNC(=O)c1cnc(Nc2ncc(C#N)cc2F)cc1NC(C)C [Example 37] | 95 |  |
| CC(C)CNc1cc(Nc2ncc(C#N)cc2Cl)ncc1C(=O)NC[C@@H](F)C(C)(C)O [Example 155] | 309 |  |
| CC(C)Nc1cc(Nc2ncncc2F)ncc1C(=O)NC[C@@H](F)C(C)(C)O [Example 53] | 517 |  |
| CC(C)(O)[C@H](F)CNC(=O)c1cnc(Nc2ncc(C#N)c(N)n2)cc1NC1CC1 [Example 154] | 529 |  |
| CCNc1cc(Nc2ncc(C#N)cc2F)ncc1C(=O)NC[C@@H](F)C(C)(C)O [Example 66] | 63 |  |
| CC(C)(O)[C@H](F)CNC(=O)c1cnc(Nc2ncc(C#N)cc2Cl)cc1Nc1cccc(C#N)c1 [Example 162] | 330 |  |
| CC(C)(O)[C@H](F)CNC(=O)c1cnc(Nc2ncc(C#N)cc2F)cc1Nc1cccc(NS(C)(=O)=O)c1 [Example 134] | 203 |  |
| CC(C)(O)[C@H](F)CNC(=O)c1cnc(Nc2ncc(C#N)cc2F)cc1Nc1cccc(O)c1 [Example 125] | 85 |  |
| CC(C)Nc1cc(Nc2ncc(C#N)c(N)n2)ncc1C(=O)NC[C@@H](F)C(C)(C)O [Example 136] | 63 |  |
| CC(C)Nc1cc(Nc2ncc(O)cn2)ncc1C(=O)NC[C@@H](F)C(C)(C)O [Example 111] | 653 |  |
| COC(=O)Cn1cc(Cl)c(Nc2cc(NC(C)C)c(C(=O)NC[C@@H](F)C(C)(C)O)cn2)n1 [Example 93] | 394 |  |
| CC(C)CCNc1cc(Nc2ncc(C#N)cc2F)ncc1C(=O)NC[C@@H](F)C(C)(C)O [Example 141] | 412 |  |
| Cn1nnnc1-c1cccc(Nc2cc(Nc3ncc(C#N)cc3Cl)ncc2C(=O)NC[C@@H](F)C(C)(C)O)c1 [Example 146] | 509 |  |

| Structure (SMILES) | EC50 [nM] | IC50 [nM] |
| --- | --- | --- |
| CC(C)(O)[C@H](F)CNC(=O)c1cnc(Nc2ncc(C#N)cc2F)cc1NC12CC3CC(CC(C3)C1)C2 [Example 119] | 736 |  |
| CC(C)Nc1cc(Nc2ncc(F)cc2F)ncc1C(=O)NC[C@@H](F)C(C)(C)O [Example 80] | 335 |  |
| C[C@@H](CO)Nc1cc(Nc2ncc(C#N)cc2F)ncc1C(=O)NC[C@@H](F)C(C)(C)O [Example 91] | 178 |  |
| CC(C)(O)[C@H](F)CNC(=O)c1cnc(Nc2ncc(C(N)=O)cc2Cl)cc1NC1CCC(F)C1 (stereo partly shown) [Example 38] | 453 |  |
| CC(C)Nc1cc(Nc2ncc(C#N)cc2F)ncc1C(=O)NCCCOC(C)(C)C [Example 127] | 254 |  |
| CCC(C)Nc1cc(Nc2ncc(C#N)cn2)ncc1C(=O)NC[C@@H](F)C(C)(C)O (stereo partly shown) [Example 99] |  | 475 |
| CC(C)(O)[C@H](F)CNC(=O)c1cnc(Nc2ncncc2Cl)cc1NC1CCCOC1 (stereo partly shown) [Example 96] |  | 1550 |
| COC[C@H](F)CNC(=O)c1cnc(Nc2ncc(C#N)cc2F)cc1NC(C)C [Example 35, (R)-6-((5-cyano-3-fluoropyridin-2-yl)amino)-N-(2-fluoro-3-methoxypropyl)-4-(isopropylamino)nicotinamide] | 350 |  |
| C[C@H](CO)Nc1cc(Nc2ncc(F)cc2F)ncc1C(=O)NC[C@@H](F)C(C)(C)O [Example 100] | 308 |  |
| CC(C)Nc1cc(Nc2ncncc2Cl)ncc1C(=O)NC[C@@H](F)C(C)(C)O [Example 52] |  | 74 |
| CC(C)(O)[C@H](F)CNC(=O)c1cnc(Nc2ccc(Cl)cn2)cc1NC1CC1 [Example 81] | 96 |  |
| CC(C)Nc1cc(Nc2ccnc(N3CCC(F)C3)n2)ncc1C(=O)NC[C@@H](F)C(C)(C)O (stereo partly drawn) [Example 26, N-((2R)-2-fluoro-3-hydroxy-3-methylbutyl)-6-((2-(3-fluoro-1-pyrrolidinyl)-4-pyrimidinyl)amino)-4-(isopropylamino)nicotinamide] |  | 139 |
| CC(C)(O)[C@H](F)CNC(=O)c1cnc(Nc2ncc(Cl)cc2F)cc1NC1CC1 [Example 124] | 98 |  |
| CC(=O)N[C@H]1CC[C@H](NC(=O)c2cnc(Nc3ccc(C#N)cn3)cc2NC2CCOCC2F)CC1 (stereo partly drawn) [Example 11, N-((1R,4R)-4-acetamidocyclohexyl)-6-((5-cyanopyridin-2-yl)amino)-4-(((3 S,4R)-3-fluorotetrahydro-2H-pyran-4-yl)amino)nicotinamide] |  | 320 |
| CC(C)Nc1cc(Nc2ncc(C#N)cc2F)ncc1C(=O)N[C@H]1CC[C@H](C(C)(C)O)CC1 [Example 137] | 72 |  |
| CC(C)(O)c1cnc(Nc2cc(Nc3ncc(C#N)cc3Cl)ncc2C(=O)NC[C@@H](F)C(C)(C)O)s1 [Example 75] | 54 |  |
| CC(C)Nc1cc(Nc2ccc(C#N)cn2)ncc1C(=O)NC1CCC(O)(c2ccnn2C)CC1 (stereo not shown) [Example 31, 6-((5-cyanopyridin-2-yl)amino)-N-((1s,4s)-4-hydroxy-4-(1-methyl-1H-pyrazol-5-yl)cyclohexyl)-4-(isopropylamino)nicotinamide] | 170 |  |
| CC(C)(O)[C@H](F)CNC(=O)c1cnc(Nc2ccc(C#N)cn2)cc1NCC(F)(F)F [Example 3, 6-((5-cyano-2-pyridinyl)amino)-N-((2R)-2-fluoro-3-hydroxy-3-methylbutyl)-4-((2,2,2-trifluoroethyl)amino)nicotinamide] |  | 789 |
| CC(C)Nc1cc(Nc2ncc(C#N)cc2F)ncc1C(=O)NC1CCC(O)(c2nccs2)CC1 (stereo not shown) [Example 167] | 638 |  |
| CCC(O)(CC)[C@H](F)CNC(=O)c1cnc(Nc2ncc(C#N)cn2)cc1NC(C)C [Example 117] | 202 |  |
| COc1cnc(Nc2cc(NC3CCC3)c(C(=O)NC[C@@H](F)C(C)(C)O)cn2)nc1 [Example 112] | 87 |  |

| Structure (SMILES) | EC50 [nM] | IC50 [nM] |
| --- | --- | --- |
| CC(C)CCNc1cc(Nc2ncc(C#N)cc2Cl)ncc1C(=O)NC[C@@H](F)C(C)(C)O [Example 140] | 241 |  |
| CC(C)(O)[C@H](F)CNC(=O)c1cnc(Nc2ncc(C#N)cc2Cl)cc1Nc1cccc(C(N)=O)c1 [Example 143] | 126 |  |
| Cn1nnnc1-c1ccc(Nc2cc(Nc3ncc(C#N)cc3Cl)ncc2C(=O)NC[C@@H](F)C(C)(C)O)cc1 [Example 148] | 111 |  |
| CC(C)Nc1cc(Nc2ncc(C#N)cc2Cl)ncc1C(=O)N[C@H]1CC[C@H](O)CC1 [Example 92] | 269 |  |
| CC(C)(O)[C@H](F)CNC(=O)c1cnc(Nc2ncc(C#N)cc2F)cc1Nc1cccc(C(N)=O)c1 [Example 135] | 129 |  |
| CC(C)(O)[C@H](F)CNC(=O)c1cnc(Nc2ncc(C#N)cn2)cc1NC1CCC(F)C1 (stereo partly shown) [Example 56] |  | 41 |
| CC(=O)N[C@H](C)CCNC(=O)c1cnc(Nc2ncc(C#N)cc2F)cc1NC(C)C [Example 64] |  | 448 |
| CC(C)(O)[C@H](F)CNC(=O)c1cnc(Nc2ncc(C#N)cc2F)cc1Nc1cccc(CO)c1 [Example 122] | 56 |  |
| CC(C)Nc1cc(Nc2ccc(C#N)cn2)ncc1C(=O)NC[C@@H](F)C(C)(C)O [Example 2, 6-((5-cyano-2-pyridinyl)amino)-N-((2R)-2-fluoro-3-hydroxy-3-methylbutyl)-4-(isopropylamino)nicotinamide] |  | 453 |
| CC(C)(O)CNc1cc(Nc2ncc(C#N)cc2Cl)ncc1C(=O)NC[C@@H](F)C(C)(C)O [Example 48] |  | 369 |
| CC(C)(O)[C@H](F)CNC(=O)c1cnc(Nc2ncc(C#N)cc2F)cc1Nc1ccc(C(N)=O)cc1 [Example 142] | 93 |  |
| CC(C)(O)[C@H](F)CNC(=O)c1cnc(Nc2ncc(C#N)cc2F)cc1Nc1cccc(S(N)(=O)=O)c1 [Example 128] | 224 |  |
| CC(C)(O)[C@H](F)CNC(=O)c1cnc(Nc2ncc(F)cc2F)cc1NC1CCOCC1F (stereo partly shown) [Example 108] | 368 |  |
| CC(C)(O)[C@H](F)CNC(=O)c1cnc(Nc2ncc(C#N)cn2)cc1NC1CCC(F)C1 (stereo partly shown) [Example 86] | 349 |  |
| CC(C)(O)[C@H](F)CNC(=O)c1cnc(Nc2nc(OC3CCNCC3)ncc2Cl)cc1NC1CC1 [Example 42] | 329 |  |
| CC(C)Nc1cc(Nc2ncc(C#N)cc2Cl)ncc1C(=O)NC[C@H](F)C(C)(C)O [Example 156] | 124 |  |
| CNC(=O)[C@H]1CC[C@H](NC(=O)c2cnc(Nc3ncc(C#N)cc3F)cc2NC2CC2)CC1 [Example 59] |  | 60 |
| CCNC(=O)[C@H]1CC[C@H](NC(=O)c2cnc(Nc3ncc(C#N)cc3F)cc2NC(C)C)CC1 [Example 30, 6-((5-cyano-3-fluoropyridin-2-yl)amino)-N-((1R,4R)-4-(ethylcarbamoyl)cyclohexyl)-4-(isopropylamino)nicotinamide] | 163 |  |
| CS(=O)(=O)[C@H]1CC[C@H](NC(=O)c2cnc(Nc3ncc(C#N)cc3F)cc2Nc2cccc(C(N)=O)c2)CC1 [Example 161] | 303 |  |
